From patent US8163779B2, “Glucokinase activators” (Takeda San Diego, Inc., priority 2006, dated 2012)

Target: T1, glucokinase (GK) (Homo sapiens, UniProt P35557)
T1 construct: I.D. No. 1 corresponds to residues 12-465 of glucokinase; made in house; host or cells: E. coli DH10b-T1r
T1 sequence (P35557 with tags, fused parts or gaps isoform P35557-2): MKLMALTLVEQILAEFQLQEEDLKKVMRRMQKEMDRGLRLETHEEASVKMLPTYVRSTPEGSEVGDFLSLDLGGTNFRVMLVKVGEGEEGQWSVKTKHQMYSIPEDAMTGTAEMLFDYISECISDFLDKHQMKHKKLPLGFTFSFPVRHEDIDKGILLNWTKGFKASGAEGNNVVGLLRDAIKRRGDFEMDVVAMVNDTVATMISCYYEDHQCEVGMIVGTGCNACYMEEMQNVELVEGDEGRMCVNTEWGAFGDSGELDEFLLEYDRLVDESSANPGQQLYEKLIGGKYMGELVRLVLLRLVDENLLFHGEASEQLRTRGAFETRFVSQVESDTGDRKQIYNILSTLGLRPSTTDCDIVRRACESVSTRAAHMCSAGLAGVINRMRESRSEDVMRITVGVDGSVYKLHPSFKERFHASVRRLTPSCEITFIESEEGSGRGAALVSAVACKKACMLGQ
Assay: enzymatic glucokinase activity assay (ATP consumption, KinaseGlo luminescence)
Format: biochemical
Conditions: recombinant GK residues 12-465; 5 μM ATP, 5 mM Glucose; Kact = concentration that displays 50% of the maximal increase in GK activity; read-out: pKact
Procedure, shortened: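 Activation was scored as ATP consumption, quantified by KinaseGlo luciferase luminescence after a 60 min room-temperature reaction. Reactions contained E. coli-expressed, purified GK, 5 μM ATP, 5 mM glucose, 10 mM MgCl2, 0.01% Brij35 and 2% DMSO at pH 7.2; pKact was fitted non-linearly.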

| SMILES | EC50 [µM] |
| --- | --- |
| Cc1cc(S(=O)(=O)C2CCCC2)cc(=O)n1[C@@H](CC1CCOCC1)C(=O)Nc1ccc(Cl)cn1 [Example 166, (S)-N-(5-chloropyridin-2-yl)-2-(4-(cyclopentylsulfonyl)-6-methyl-2-oxopyridin-1(2H)-yl)-3-(tetrahydro-2H-pyran-4-yl)propanamide] | < 1.58 |
| Cc1cc(S(=O)(=O)C2CCCC2)cc(=O)n1[C@H](CC1CCOCC1)C(=O)Nc1ccc(Cl)cn1 [Example 167, (R)-N-(5-chloropyridin-2-yl)-2-(4-(cyclopentylsulfonyl)-6-methyl-2-oxopyridin-1(2H)-yl)-3-(tetrahydro-2H-pyran-4-yl)propanamide] | > 15.8 |
| Cc1cc(S(=O)(=O)c2cccc(Cl)c2)cc(=O)n1[C@@H](CC1CCOCC1)C(=O)Nc1ncc(F)s1 [Example 168, (S)2-(4-(3-chlorophenylsulfonyl)-6-methyl-2-oxopyridin-1(2H)-yl)-N-(5-fluorothiazol-2-yl)-3-(tetrahydro-2H-pyran-4-yl)propanamide] | < 1.58 |
| Cc1cc(S(=O)(=O)c2cccc(Cl)c2)cc(=O)n1[C@H](CC1CCOCC1)C(=O)Nc1ncc(F)s1 [Example 169, (R)-2-(4-(3-chlorophenylsulfonyl)-6-methyl-2-oxopyridin-1(2H)-yl)-N-(5-fluorothiazol-2-yl)-3-(tetrahydro-2H-pyran-4-yl)propanamide] | > 15.8 |
| Cc1cc(S(=O)(=O)C2CC2)cc(=O)n1[C@H](CC1CCCC1)C(=O)Nc1cnccn1 [Example 170, (R)-3-cyclopentyl-2-(4-(cyclopropylsulfonyl)-6-methyl-2-oxopyridin-1(2H)-yl)-N-(pyrazin-2-yl)propanamide] | > 15.8 |
| Cc1cc(S(=O)(=O)C2CC2)cc(=O)n1[C@@H](CC1CCCC1)C(=O)Nc1cnccn1 [Example 171, (S)-3-cyclopentyl-2-(4-(cyclopropylsulfonyl)-6-methyl-2-oxopyridin-1(2H)-yl)-N-(pyrazin-2-yl)propanamide] | 1.58 to 15.8 |
| Cc1cc(S(=O)(=O)C2CC2)cc(=O)n1[C@@H](CC1CCOCC1)C(=O)Nc1ncc(Cl)s1 [Example 172, (S)-N-(5-chlorothiazol-2-yl)-2-(4-(cyclopropylsulfonyl)-6-methyl-2-oxopyridin-1(2H)-yl)-3-(tetrahydro-2H-pyran-4-yl)propanamide] | < 1.58 |
| Cc1cc(S(=O)(=O)C2CC2)cc(=O)n1[C@H](CC1CCOCC1)C(=O)Nc1ncc(Cl)s1 [Example 173, (R)-N-(5-chlorothiazol-2-yl)-2-(4-(cyclopropylsulfonyl)-6-methyl-2-oxopyridin-1(2H)-yl)-3-(tetrahydro-2H-pyran-4-yl)propanamide] | > 15.8 |
| Cc1cc(S(=O)(=O)C2CCOCC2)cc(=O)n1C(CC1CCCC1)C(=O)Nc1ncc(Cl)s1 (stereo not shown) [Example 174, N-(5-chlorothiazol-2-yl)-3-cyclopentyl-2-(6-methyl-2-oxo-4-(tetrahydro-2H-pyran-4-ylsulfonyl)pyridin-1(2H)-yl)propanamide] | 1.58 to 15.8 |
| Cc1cc(S(=O)(=O)C2CCOCC2)cc(=O)n1C(CC1CCCC1)C(=O)Nc1ncc(F)s1 (stereo not shown) [Example 175, 3-cyclopentyl-N-(5-fluorothiazol-2-yl)-2-(6-methyl-2-oxo-4-(tetrahydro-2H-pyran-4-ylsulfonyl)pyridin-1(2H)-yl)propanamide] | 1.58 to 15.8 |
| Cc1cc(S(=O)(=O)C2CCCC2)cc(=O)n1C(CC1CCOCC1)C(=O)Nc1cnccn1 (stereo not shown) [Example 177, 2-(4-(cyclopentylsulfonyl)-6-methyl-2-oxopyridin-1(2H)-yl)-N-(pyrazin-2-yl)-3-(tetrahydro-2H-pyran-4-yl)propanamide] | > 15.8 |
| Cc1cc(S(=O)(=O)C2CC2)cc(=O)n1C(CC1CCCC1)C(=O)Nc1ncc(Cl)s1 (stereo not shown) [Example 178, N-(5-chlorothiazol-2-yl)-3-cyclopentyl-2-(4-(cyclopropylsulfonyl)-6-methyl-2-oxopyridin-1(2H)-yl)propanamide] | < 1.58 |
| O=C(Nc1ncc(Cl)s1)C(CC1CCOCC1)n1cc(Cl)c(S(=O)(=O)C2CC2)cc1=O (stereo not shown) [Example 179, 2-(5-chloro-4-(cyclopropylsulfonyl)-2-oxopyridin-1(2H)-yl)-N-(5-chlorothiazol-2-yl)-3-(tetrahydro-2H-pyran-4-yl)propanamide] | 1.58 to 15.8 |
| Cc1cc(S(=O)(=O)C2CC2)cc(=O)n1[C@@H](CC1CCCC1)C(=O)Nc1ccc(C(N)=O)cn1 [Example 180, (S)-6-(3-cyclopentyl-2-(4-(cyclopropylsulfonyl)-6-methyl-2-oxopyridin-1(2H)-yl)propanamido)nicotinamide] | 1.58 to 15.8 |
| Cc1cc(S(=O)(=O)C2CCCC2)cc(=O)n1[C@H](CC1CCOCC1)C(=O)Nc1ccc(C(N)=O)cn1 [Example 181, (R)-6-(2-(4-(cyclopentylsulfonyl)-6-methyl-2-oxopyridin-1(2H)-yl)-3-(tetrahydro-2H-pyran-4-yl)propanamido)nicotinamide] | > 15.8 |
| Cc1cc(S(=O)(=O)C2CCCC2)cc(=O)n1[C@@H](CC1CCOCC1)C(=O)Nc1ccc(C(N)=O)cn1 [Example 182, (S)-6-(2-(4-(cyclopentylsulfonyl)-6-methyl-2-oxopyridin-1(2H)-yl)-3-(tetrahydro-2H-pyran-4-yl)propanamido)nicotinamide] | 1.58 to 15.8 |
| Cc1cc(S(=O)(=O)C2CC2)cc(=O)n1[C@@H](CC1CCCC1)C(=O)Nc1ncc(Cl)s1 [Example 183, (S)-N-(5-chlorothiazol-2-yl)-3-cyclopentyl-2-(4-(cyclopropylsulfonyl)-6-methyl-2-oxopyridin-1(2H)-yl)propanamide] | < 1.58 |
| O=C(Nc1ncc(Cl)s1)C(CC1CCOCC1)n1cc(Cl)c(S(=O)(=O)C2CCCC2)cc1=O (stereo not shown) [Example 185, 2-(5-chloro-4-(cyclopentylsulfonyl)-2-oxopyridin-1(2H)-yl)-N-(5-chlorothiazol-2-yl)-3-(tetrahydro-2H-pyran-4-yl)propanamide] | 1.58 to 15.8 |
| O=C(Nc1ncc(F)s1)C(CC1CCOCC1)n1cc(Cl)c(S(=O)(=O)C2CCCC2)cc1=O (stereo not shown) [Example 186, 2-(5-chloro-4-(cyclopentylsulfonyl)-2-oxopyridin-1(2H)-yl)-N-(5-fluorothiazol-2-yl)-3-(tetrahydro-2H-pyran-4-yl)propanamide] | 1.58 to 15.8 |
| Cc1cc(S(=O)(=O)C2CCS(=O)(=O)CC2)cc(=O)n1[C@@H](CC1CCCCC1)C(=O)Nc1ncc(Cl)s1 [Example 187, (S)-N-(5-chlorothiazol-2-yl)-2-(4-(1,1-dioxotetrahydrothiopyran-4-ylsulfonyl)-6-methyl-2-oxopyridin-1(2H)-yl)-3-cyclohexyipropanamide] | 1.58 to 15.8 |
| Cc1cc(S(=O)(=O)C2CCS(=O)(=O)CC2)cc(=O)n1[C@H](CC1CCCCC1)C(=O)Nc1ncc(Cl)s1 [Example 188, (R)-N-(5-chlorothiazol-2-yl)-2-(4-(1,1-dioxotetrahydrothiopyran-4-ylsulfonyl)-6-methyl-2-oxopyridin-1(2H)-yl)-3-cyclohexylpropanamide] | > 15.8 |
| Cc1cc(S(=O)(=O)c2cccc(F)c2)cc(=O)n1[C@@H](CC1CCOCC1)C(=O)Nc1ncc(F)s1 [Example 189, (S)-2-(4-(3-fluorophenylsulfonyl)-6-methyl-2-oxopyridin-1(2H)-yl)-N-(5-fluorothiazol-2-yl)-3-(tetrahydro-2H-pyran-4-yl)propanamide] | 1.58 to 15.8 |
